We go through 20 compounds from patent US20240246964A1 (Arbutus Biopharma Corporation, priority 2021, published 2024).

Assay [1] has as its target PD-L1 His protein / PD-1 Fc protein (Homo sapiens (Human), UniProt Q9NZQ7). Description: HTRF Assay (PD-1/PD-L1 interaction). It counts as binding. The settings on record: PD-L1 His 6 nM, PD-1 Fc 6 nM.
For the next assay, the target named is human PD-L1 (Homo sapiens (Human), UniProt Q9NZQ7). Description: T cell activation luciferase reporter cell culture system (T Cell Activation Assay). The settings on record: luciferase reporter assay; PD-L1 aAPC/CHO-K1 cells with PD-1 effector Jurkat T cells. In kind it is cell-based.
Sequence of human PD-L1 (Q9NZQ7 19-290): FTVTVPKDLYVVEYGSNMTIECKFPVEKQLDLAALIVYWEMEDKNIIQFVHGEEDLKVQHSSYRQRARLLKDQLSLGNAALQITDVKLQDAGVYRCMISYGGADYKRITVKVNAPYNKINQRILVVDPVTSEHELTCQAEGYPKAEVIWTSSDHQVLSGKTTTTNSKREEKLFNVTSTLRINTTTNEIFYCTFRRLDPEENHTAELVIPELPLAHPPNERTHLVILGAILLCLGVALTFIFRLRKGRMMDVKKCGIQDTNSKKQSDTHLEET

Bounds are passed on as bounds.

Sequence of PD-L1 His protein / PD-1 Fc protein (Q9NZQ7 19-238): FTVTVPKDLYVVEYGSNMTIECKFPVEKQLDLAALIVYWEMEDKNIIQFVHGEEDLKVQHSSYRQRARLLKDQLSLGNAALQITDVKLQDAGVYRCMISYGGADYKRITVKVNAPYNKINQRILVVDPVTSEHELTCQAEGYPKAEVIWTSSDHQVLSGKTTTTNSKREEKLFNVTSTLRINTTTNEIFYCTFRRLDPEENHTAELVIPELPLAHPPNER

In turn, `COc1cc(-c2nccc(-c3cccc(-c4ccc5c(OC)c(CNC[C@H](C)O)cc(Cl)c5n4)c3Cl)c2Cl)ccc1CNC[C@@H]1CCC(=O)N1` [Compound 206, (S)-5-(((4-(3-chloro-4-(2-chloro-3-(8-chloro-6-((((S)-2-hydroxypropyl)amino)methyl)-5-methoxyquinolin-2-yl)phenyl)pyridin-2-yl)-2-methoxybenzyl)amino)methyl)pyrrolidin-2-one] gave a half-maximal inhibitory concentration (IC50) in assay [1] of 0.000856 µM. On human PD-L1, this compound yielded an EC50 of 0.182 µM.

For `COc1cc(-c2nccc(-c3cccc(-c4ccc5c(OC)c(CNC[C@@H]6CCC(=O)N6)cc(Cl)c5n4)c3Cl)c2Cl)ccc1CNC[C@@H]1CCC(=O)N1` [Compound 207, (S)-5-((((8-chloro-2-(2-chloro-3-(3-chloro-2-(3-methoxy-4-(((((S)-5-oxopyrrolidin-2-yl)methyl)amino)methyl)phenyl)pyridin-4-yl)phenyl)-5-methoxyquinolin-6-yl)methyl)amino)methyl)pyrrolidin-2-one], the half-inhibitory concentration (IC50) in assay [1] was 0.00766 µM. Besides, the EC50 on human PD-L1 was found to be 0.118 µM.

On to `COc1nc(-c2cccc(-c3ccnc(-c4cc(Cl)c5c(c4)CCN(CCC(C)(C)O)C5)c3Cl)c2Cl)ccc1CNC[C@@H]1CCC(=O)N1` [Compound 208, (S)-5-((((6-(2-chloro-3-(3-chloro-2-(8-chloro-2-(3-hydroxy-3-methylbutyl)-1,2,3,4-tetrahydroisoquinolin-6-yl)pyridin-4-yl)phenyl)-2-methoxypyridin-3-yl)methyl)amino)methyl)pyrrolidin-2-one], for which, in assay [1], 0.00805 µM corresponded to half-maximal inhibition (IC50). The EC50 on human PD-L1 is 0.082 µM.

The compound `COc1cc(-c2nccc(-c3cccc(-c4ccc(C5=NCCN5)c(OC)n4)c3Cl)c2Cl)ccc1CNC[C@@H](O)CC(=O)OC(C)C` [Compound 209, isopropyl (S)-4-((4-(3-chloro-4-(2-chloro-3-(5-(4,5-dihydro-1H-imidazol-2-yl)-6-methoxypyridin-2-yl)phenyl)pyridin-2-yl)-2-methoxybenzyl)amino)-3-hydroxybutanoate] showed an IC50 in assay [1] of 0.0228 µM. Also, the EC50 on human PD-L1 was ≥ 10 µM.

The compound `COc1cc(-c2nccc(-c3cccc(-c4ccc(CNC[C@@H]5CCC(=O)N5)c(OC)n4)c3Cl)c2Cl)cc(F)c1CNC1CC2(C1)CN(C(C)=O)C2` [Compound 210, (S)-5-((((6-(3-(2-(4-(((2-acetyl-2-azaspiro[3.3]heptan-6-yl)amino)methyl)-3-fluoro-5-methoxyphenyl)-3-chloropyridin-4-yl)-2-chlorophenyl)-2-methoxypyridin-3-yl)methyl)amino)methyl)pyrrolidin-2-one] came in with an IC50 in assay [1] of 0.00212 µM. The compound further showed an EC50 on human PD-L1 of 0.0266 µM.

In turn, `CNCc1ccc(-c2cccc(-c3ccnc(-c4ccc(CNC(C)C)c(OC)c4)c3Cl)c2Cl)nc1OC` [Compound 211, N-(4-(3-chloro-4-(2-chloro-3-(6-methoxy-5-((methylamino)methyl)pyridin-2-yl)phenyl)pyridin-2-yl)-2-methoxybenzyl)propan-2-amine] displayed an IC50 in assay [1] of 0.0042 µM. The compound also displayed a half-maximal effective concentration (EC50) at human PD-L1 of 0.0562 µM.

The compound `CNCc1ccc(-c2cccc(-c3ccnc(-c4ccc(CNC5CCN(C(C)=O)CC5)c(OC)c4)c3Cl)c2Cl)nc1OC` [Compound 212, 1-(4-((4-(3-chloro-4-(2-chloro-3-(6-methoxy-5-((methylamino)methyl)pyridin-2-yl)phenyl)pyridin-2-yl)-2-methoxybenzyl)amino)piperidin-1-yl)ethan-1-one] returned a 50% inhibitory concentration (IC50) in assay [1] of 0.00272 µM. The same compound came in with a concentration giving a half-maximal response (EC50) on human PD-L1 of 0.0206 µM.

For `CNCc1ccc(-c2cccc(-c3ccnc(-c4ccc(CN5CC6(CNC(=O)C6)C5)c(OC)c4)c3Cl)c2Cl)nc1OC` [Compound 213, 2-(4-(3-chloro-4-(2-chloro-3-(6-methoxy-5-((methylamino)methyl)pyridin-2-yl)phenyl)pyridin-2-yl)-2-methoxybenzyl)-2,6-diazaspiro[3.4]octan-7-one], in assay [1], the 50% inhibitory concentration (IC50) was found to be 0.00273 µM. The same compound registered an EC50 on human PD-L1 of 0.0235 µM.

For `COc1cc(-c2nccc(-c3cccc(-c4ccc(CNC[C@H](C)O)c(OC)n4)c3Cl)c2Cl)cc2c1CN(C[C@H](C)O)CC2` [Compound 214, (S)-1-(((6-(2-chloro-3-(3-chloro-2-(2-((S)-2-hydroxypropyl)-8-methoxy-1,2,3,4-tetrahydroisoquinolin-6-yl)pyridin-4-yl)phenyl)-2-methoxypyridin-3-yl)methyl)amino)propan-2-ol], the 50% inhibitory concentration (IC50) in assay [1] worked out at 0.00431 µM. Besides, the EC50 on human PD-L1 stood at 0.027 µM.

`COc1cc(-c2nccc(-c3cccc(-c4ccc(CN[C@H]5C[C@](C)(O)C5)c(OC)n4)c3Cl)c2Cl)cc2c1CN(C[C@H](C)O)CC2` [Compound 215, (1r,3r)-3-(((6-(2-chloro-3-(3-chloro-2-(2-((S)-2-hydroxypropyl)-8-methoxy-1,2,3,4-tetrahydroisoquinolin-6-yl)pyridin-4-yl)phenyl)-2-methoxypyridin-3-yl)methyl)amino)-1-methylcyclobutan-1-ol]: in assay [1], the half-inhibitory concentration (IC50) worked out at 0.00558 µM. At human PD-L1, this compound had an EC50 of 0.0255 µM.

In turn, `COc1cc(-c2nccc(-c3cccc(-c4ccc(CNC[C@@H]5CCCO5)c(OC)n4)c3Cl)c2Cl)cc2c1CN(C[C@H](C)O)CC2` [Compound 216, (S)-1-(6-(3-chloro-4-(2-chloro-3-(6-methoxy-5-(((((S)-tetrahydrofuran-2-yl)methyl)amino)methyl)pyridin-2-yl)phenyl)pyridin-2-yl)-8-methoxy-3,4-dihydroisoquinolin-2(1H)-yl)propan-2-ol] displayed a half-maximal inhibitory concentration (IC50) in assay [1] of 0.00451 µM. Also, the midpoint of the response on human PD-L1, the EC50, lay at 0.271 µM.

Consider `COc1cc(-c2nccc(-c3cccc(-c4ccc(CN5CC(C)(O)C5)c(OC)n4)c3Cl)c2Cl)cc2c1CN(C[C@H](C)O)CC2` [Compound 217, (S)-1-((6-(2-chloro-3-(3-chloro-2-(2-(2-hydroxypropyl)-8-methoxy-1,2,3,4-tetrahydroisoquinolin-6-yl)pyridin-4-yl)phenyl)-2-methoxypyridin-3-yl)methyl)-3-methylazetidin-3-ol], for which half-maximal inhibition in assay [1] (IC50) required 0.00201 µM. This compound returned an EC50 on human PD-L1 of 0.0382 µM.

Compound `COC(=O)CNCc1ccc(-c2cccc(-c3ccnc(-c4cc5c(c(OC)c4)CN(C[C@H](C)O)CC5)c3Cl)c2Cl)nc1OC` [Compound 218, methyl (S)-((6-(2-chloro-3-(3-chloro-2-(2-(2-hydroxypropyl)-8-methoxy-1,2,3,4-tetrahydroisoquinolin-6-yl)pyridin-4-yl)phenyl)-2-methoxypyridin-3-yl)methyl)glycinate] returned a half-inhibitory concentration (IC50) in assay [1] of 0.00712 µM. This compound also showed an EC50 on human PD-L1 of 0.601 µM.

With `COc1cc(-c2nccc(-c3cccc(-c4ccc5c(CN6CC7(CNC(=O)C7)C6)cn(C)c5n4)c3Cl)c2Cl)ccc1CNC[C@@H]1CCC(=O)N1` [Compound 219, (S)-2-((6-(2-chloro-3-(3-chloro-2-(3-methoxy-4-((((5-oxopyrrolidin-2-yl)methyl)amino)methyl)phenyl)pyridin-4-yl)phenyl)-1-methyl-1H-pyrrolo[2,3-b]pyridin-3-yl)methyl)-2,6-diazaspiro[3.4]octan-7-one], in assay [1], 0.00273 µM corresponded to half-maximal inhibition (IC50). This compound showed an EC50 on human PD-L1 of 0.0222 µM.

Consider `CNCc1ccc(-c2cccc(-c3ccnc(-c4ccc(CNC[C@@H](O)CC(=O)O)c(OC)c4)c3Cl)c2Cl)nc1OC` [Compound 220, (S)-4-((4-(3-chloro-4-(2-chloro-3-(6-methoxy-5-((methylamino)methyl)pyridin-2-yl)phenyl)pyridin-2-yl)-2-methoxybenzyl)amino)-3-hydroxybutanoic acid], for which the concentration for half-maximal inhibition (IC50) in assay [1] worked out at 0.00218 µM. This compound registered an EC50 on human PD-L1 of 0.0761 µM.

As to `CNCc1ccc(-c2cccc(-c3ccnc(-c4ccc(CNCCC(=O)O)c(OC)c4)c3Cl)c2Cl)nc1OC` [Compound 221, 3-((4-(3-chloro-4-(2-chloro-3-(6-methoxy-5-((methylamino)methyl)pyridin-2-yl)phenyl)pyridin-2-yl)-2-methoxybenzyl)amino)propanoic acid], half-maximal inhibition in assay [1] (IC50) required 0.0002 µM. On human PD-L1, this compound registered a 50% effective concentration (EC50) of 0.0644 µM.

Turning to `COc1nc(-c2ccnc(-c3cccc4c3CC[C@@H]4Nc3nc(OC)c(CNC[C@@H]4CCC(=O)N4)cc3C(F)(F)F)c2Cl)ccc1CNC[C@@H]1CCC(=O)N1` [Compound 223, (S)-5-((((3′-chloro-6-methoxy-2′-((S)-1-((6-methoxy-5-(((((S)-5-oxopyrrolidin-2-yl)methyl)amino)methyl)-3-(trifluoromethyl)pyridin-2-yl)amino)-2,3-dihydro-1H-inden-4-yl)-[2,4′-bipyridin]-5-yl)methyl)amino)methyl)pyrrolidin-2-one], the 50% inhibitory concentration (IC50) in assay [1] was 0.00724 µM. Moreover, at human PD-L1, the midpoint of the response, the EC50, lay at 0.0167 µM.

As to `CNCc1ccc(-c2ccnc(-c3cccc4c3CC[C@@H]4Nc3nc(OC)c(CNC)cc3C(F)(F)F)c2Cl)nc1OC` [Compound 224, (S)-N-(4-(3′-chloro-6-methoxy-5-((methylamino)methyl)-[2,4′-bipyridin]-2′-yl)-2,3-dihydro-1H-inden-1-yl)-6-methoxy-5-((methylamino)methyl)-3-(trifluoromethyl)pyridin-2-amine], the 50% inhibitory concentration (IC50) in assay [1] was 0.00822 µM. At human PD-L1, the EC50 is ≥ 10 µM.

For the compound `COc1nc(-c2ccnc(-c3cccc4c3CC[C@@H]4Nc3nc(OC)c(CN[C@H]4C[C@](C)(O)C4)cc3C(F)(F)F)c2Cl)ccc1CN[C@H]1C[C@](C)(O)C1` [Compound 225, (1S,3r)-3-(((3′-chloro-2′-((S)-1-((5-((((1r,3S)-3-hydroxy-3-methylcyclobutyl)amino)methyl)-6-methoxy-3-(trifluoromethyl)pyridin-2-yl)amino)-2,3-dihydro-1H-inden-4-yl)-6-methoxy-[2,4′-bipyridin]-5-yl)methyl)amino)-1-methylcyclobutan-1-ol], the 50% inhibitory concentration (IC50) in assay [1] amounted to 0.0082 µM. The EC50 on human PD-L1 is ≥ 10 µM.

In assay [1], `CNCc1ccc(-c2cccc(-c3ccnc(-c4ccc(CN5CC[C@H](C(=O)O)C5)c(OC)c4)c3Cl)c2Cl)nc1OC` [Compound 226, (S)-1-(4-(3-chloro-4-(2-chloro-3-(6-methoxy-5-((methylamino)methyl)pyridin-2-yl)phenyl)pyridin-2-yl)-2-methoxybenzyl)pyrrolidine-3-carboxylic acid] came in with a concentration for half-maximal inhibition (IC50) of 0.00027 µM. The compound further displayed an EC50 at human PD-L1 of 0.0627 µM.
